Activity calls are given as the source filed them. The rule behind the calls is not given here.
System: GENE-TOX genotoxicity assays, various organisms and cells
Experiment: GENE-TOX mutagenicity studies
Settings: for call: Assay Type: In vivo carcinogenicity studies
From the text: GENE-TOX provides genetic toxicology (mutagenicity) test data from expert peer review of open scientific literature for more than 3,000 chemicals from the United States Environmental Protection Agency (EPA). GENE-TOX was established to select assay systems for evaluation, review data in the scientific literature, and recommend proper testing protocols and evaluation procedures for these systems.
GENE-TOX covers the years 1991 - 1998. It is no longer updated.
This is an archive assay for GENE-TOX mutagenicity studies.

[1] = Species/Cell Type: Nonhuman, Assay Code: CCGT, Evaluation Type: Evaluation A (Pre-1980)
[2] = Species/Cell Type: Salmonella typhimurium (one or more of the five standard strains: TA98, TA100, TA1535, TA1537, and TA1538), Assay Type: Histidine reverse gene mutation, Ames assay, Assay Code: SAL+, Evaluation Type: Evaluation A (Pre-1980)
[3] = Species/Cell Type: Escherichia coli polA (W3119 vs P3478), Assay Type: Rec-assay, DNA effects (bacterial DNA repair), Assay Code: RE1T, Evaluation Type: Evaluation A (Pre-1980)
[4] = Species/Cell Type: Mammalian polychromatic erythrocytes, Assay Type: Micronucleus test, chromosome aberrations, Assay Code: MNTT, Evaluation Type: Evaluation A (Pre-1980)
[5] = Species/Cell Type: Nonhuman, Assay Type: Sister-chromatid exchange (SCE) in vivo, Assay Code: SC3+, Evaluation Type: Evaluation B (Post-1980)
[6] = Species/Cell Type: Drosophila melanogaster, Assay Type: Sex-linked recessive lethal gene mutation, Assay Code: SRLT, Evaluation Type: Evaluation A (Pre-1980)
[7] = Species/Cell Type: Salmonella typhimurium (one or more of the five standard strains: TA98, TA100, TA1535, TA1537, and TA1538), Assay Type: Histidine reverse gene mutation, Ames assay, Assay Code: SALT, Evaluation Type: Evaluation A (Pre-1980)
[8] = Species/Cell Type: Drosophila melanogaster, Assay Type: Aneuploidy, whole sex chromosome loss, chromosome aberrations, Assay Code: DACT, Evaluation Type: Evaluation A (Pre-1980)

Compound: Oc1c2ccccc2c2ccc3cccc4ccc1c2c43
- mutagenic call (Species/Cell Type: Chinese hamster lung (V79) cells, Assay Type: Forward gene mutation at the HPRT or ouabain locus, Assay Code: V79+/-*, Activation: With metabolic activation, Evaluation Type: Evaluation A (Pre-1980)): inactive; positive without activation, negative with activation
- call [1]: no conclusion
- mutagenic call [2]: active; positive

Compound: CC(CN(C)C)CN1c2ccccc2CCc2ccccc21 (stereo not given)
- mutagenic call (Species/Cell Type: Human, Sex: Male, Assay Type: Sperm morphology, Assay Code: SPHT, Evaluation Type: Evaluation A (Pre-1980)): no conclusion

Compound: c1ccc2c(c1)ccc1ccccc12
- mutagenic call (Species/Cell Type: Allium cepa, Assay Type: Chromosome aberrations, Assay Code: ALC+, Evaluation Type: Evaluation A (Pre-1980)): active; positive
- mutagenic call (Species/Cell Type: Escherichia coli polA (W3110 vs P3478), Assay Type: Rec-assay, DNA effects (bacterial DNA repair), Assay Code: RE2-, Evaluation Type: Evaluation A (Pre-1980)): inactive; negative
- mutagenic call [3]: no conclusion
- mutagenic call (Species/Cell Type: Fischer rat embryo (RLV/1706) cells, Assay Type: Cell transformation, viral enhanced, Assay Code: CTRT, Evaluation Type: Evaluation A (Pre-1980)): no conclusion
- mutagenic call (Species/Cell Type: Human diploid fibroblasts, Assay Type: Unscheduled DNA synthesis (UDS) in vitro, DNA effects, Assay Code: UDH-, Evaluation Type: Evaluation A (Pre-1980)): inactive; negative
- mutagenic call [4]: no conclusion
- mutagenic call (Species/Cell Type: Mouse (BALB/c-3T3) cells, Assay Type: Cell transformation, Assay Code: CTB-, Evaluation Type: Evaluation A (Pre-1980)): inactive; negative
- mutagenic call (Species/Cell Type: Mouse embryo (AKR/ME) cells, Assay Type: Cell transformation, Assay Code: CTK+, Evaluation Type: Evaluation A (Pre-1980)): active; positive
- mutagenic call (Species/Cell Type: Mouse prostate cells, Assay Type: Cell transformation, Assay Code: CTM-, Evaluation Type: Evaluation A (Pre-1980)): inactive; negative
- mutagenic call (Species/Cell Type: Nonhuman, Assay Type: Chromosome aberrations in vitro, Assay Code: CY&-, Evaluation Type: Evaluation A (Pre-1980)): inactive; negative
- call [1]: no conclusion
- mutagenic call (Species/Cell Type: Nonhuman, Assay Type: Sister-chromatid exchange (SCE) in vitro, Assay Code: SC2-, Evaluation Type: Evaluation A (Pre-1980)): inactive; negative
- mutagenic call [5]: active; positive
- mutagenic call (Species/Cell Type: Nonhuman, Assay Type: Sister-chromatid exchange (SCE) in vivo, Assay Code: SC3T, Evaluation Type: Evaluation A (Pre-1980)): no conclusion
- mutagenic call (Species/Cell Type: Saccharomyces cerevisiae, Assay Type: Mitotic recombination or gene conversion, Assay Code: YEH-, Evaluation Type: Evaluation A (Pre-1980)): inactive; negative
- mutagenic call (Species/Cell Type: Salmonella typhimurium (one or more of the five standard strains: TA98, TA100, TA1535, TA1537, and TA1538), Assay Type: Histidine reverse gene mutation, Ames assay, Assay Code: SAL-, Evaluation Type: Evaluation A (Pre-1980)): inactive; negative
- mutagenic call (Species/Cell Type: Salmonella typhimurium, Assay Type: Forward and reverse gene mutation, host-mediated assay, Assay Code: HMA-, Evaluation Type: Evaluation A (Pre-1980)): inactive; negative
- mutagenic call (Species/Cell Type: Syrian hamster embryo (SHE) cells, Assay Type: Cell transformation, clonal assay, Assay Code: CTC-, Evaluation Type: Evaluation A (Pre-1980)): inactive; negative

Compound: O=CC1CO1 (stereo not given)
- mutagenic call (Species/Cell Type: Escherichia coli polA (W3119 vs P3478), Assay Type: Rec-assay, DNA effects (bacterial DNA repair), Assay Code: RE1+, Evaluation Type: Evaluation A (Pre-1980)): active; positive
- mutagenic call (Species/Cell Type: Human diploid fibroblasts, Assay Type: Unscheduled DNA synthesis (UDS) in vitro, DNA effects, Assay Code: UDH+, Evaluation Type: Evaluation A (Pre-1980)): active; positive
- mutagenic call (Species/Cell Type: Mouse (BALB/c-3T3) cells, Assay Type: Cell transformation, Assay Code: CTB+D, Dose Response: With dose response, Evaluation Type: Evaluation A (Pre-1980)): active; positive
- call (Species/Cell Type: Nonhuman, Assay Code: CCG+, Evaluation Type: Evaluation A (Pre-1980)): active; positive
- mutagenic call (Species/Cell Type: Saccharomyces cerevisiae, Assay Type: Mitotic recombination or gene conversion, Assay Code: YEH+, Evaluation Type: Evaluation A (Pre-1980)): active; positive
- mutagenic call [2]: active; positive
- mutagenic call (Species/Cell Type: Salmonella typhimurium, Assay Type: Forward and reverse gene mutation, host-mediated assay, Assay Code: HMA+, Evaluation Type: Evaluation A (Pre-1980)): active; positive
- mutagenic call (Species/Cell Type: Syrian hamster embryo (SHE) cells, Assay Type: Cell transformation, clonal assay, Assay Code: CTC+, Evaluation Type: Evaluation A (Pre-1980)): active; positive

Compound: C/C=C1/C[C@@H](C)[C@@](C)(O)C(=O)OC[C@H]2CCN3CC[C@@H](OC1=O)[C@@H]23
- mutagenic call [6]: no conclusion

Compound: COc1ccc2c(c1)CCC(c1ccccc1)=C2c1ccc(OCCN2CCCC2)cc1
- mutagenic call (Species/Cell Type: Rabbit, Sex: Male, Assay Type: Sperm morphology, Assay Code: SPR+, Evaluation Type: Evaluation A (Pre-1980)): active; positive

Compound: Cc1cc(O)c(C(C)C)cc1O
- mutagenic call (Species/Cell Type: Allium cepa, Assay Type: Chromosome aberrations, Assay Code: ALC-, Evaluation Type: Evaluation A (Pre-1980)): inactive; negative

Compound: O=C(COc1ccc(Br)cc1CN1CCOCC1)N/N=C/c1ccccc1
- mutagenic call (Species/Cell Type: Saccharomyces cerevisiae, Assay Type: Reverse gene mutation, Assay Code: YERT, Evaluation Type: Evaluation A (Pre-1980)): no conclusion

Compound: COC(=O)C1=CCCN(C)C1
- mutagenic call (Species/Cell Type: Mammalian polychromatic erythrocytes, Assay Type: Micronucleus test, chromosome aberrations, Assay Code: MNT+U, Dose Response: Unconfirmed positive response, Evaluation Type: Evaluation B (Post-1980)): active; positive
- mutagenic call [5]: active; positive

Compound: Cc1ccccc1N=Nc1ccc(N=Nc2c(O)ccc3ccccc23)c(C)c1
- mutagenic call [7]: no conclusion
- mutagenic call (Species/Cell Type: Syrian hamster embryo (SA7/SHE) cells, Assay Type: Cell transformation, viral enhanced, Assay Code: CT7+, Evaluation Type: Evaluation A (Pre-1980)): active; positive

Compound: COCCOS(C)(=O)=O
- mutagenic call (Species/Cell Type: Arabidopsis species, Assay Type: Gene mutation, Assay Code: ARM+D, Dose Response: With dose response, Evaluation Type: Evaluation A (Pre-1980)): active; positive
- mutagenic call (Species/Cell Type: Hordeum vulgare (barley), Assay Type: Chromosome aberrations, Assay Code: HOC+D, Dose Response: With dose response, Evaluation Type: Evaluation A (Pre-1980)): active; positive

Compound: CC(N)Cc1ccccc1 (stereo not given)
- mutagenic call (Species/Cell Type: Drosophila melanogaster, Assay Type: Aneuploidy, sex chromosome gain, chromosome aberrations, Assay Code: DAGT, Evaluation Type: Evaluation A (Pre-1980)): no conclusion
- mutagenic call [8]: no conclusion
- mutagenic call [6]: no conclusion
- mutagenic call (Species/Cell Type: Mammalian polychromatic erythrocytes, Assay Type: Micronucleus test, chromosome aberrations, Assay Code: MNT+, Evaluation Type: Evaluation B (Post-1980)): active; positive

Compound: CNO
- mutagenic call (Species/Cell Type: Neurospora crassa, Assay Type: Reverse gene mutation, Assay Code: NER+, Evaluation Type: Evaluation A (Pre-1980)): active; positive

Compound: CC(C)OC(N)=O
- mutagenic call (Species/Cell Type: Nonhuman, Assay Type: Sister-chromatid exchange (SCE) in vivo, Assay Code: SC3+D, Dose Response: With dose response, Evaluation Type: Evaluation B (Post-1980)): active; positive

Compound: CC(=O)Nc1ccc([C@@H]2O[C@H]2c2ccccc2)cc1
- mutagenic call [7]: no conclusion

Compound: O[C@@H]1C=Cc2c(cc3ccc4cccc5ccc2c3c45)[C@H]1O
- mutagenic call (Species/Cell Type: Chinese hamster lung (V79) cells, Assay Type: Forward gene mutation at the HPRT or ouabain locus, Assay Code: V79+, Evaluation Type: Evaluation A (Pre-1980)): active; positive
- call (Species/Cell Type: Nonhuman, Assay Code: CCG+L, Evaluation Type: Evaluation A (Pre-1980)): active; positive

Compound: COc1cc(N=Nc2ccccc2)ccc1[N+](=O)[O-]
- mutagenic call [2]: active; positive

Compound: C[C@@H]1C[C@@H]([C@H](O)CC2CC(=O)NC(=O)C2)C(=O)[C@@H](C)C1
- mutagenic call [8]: no conclusion
- mutagenic call (Species/Cell Type: Escherichia coli polA (W3110 vs P3478), Assay Type: Rec-assay, DNA effects (bacterial DNA repair), Assay Code: RE2+, Evaluation Type: Evaluation A (Pre-1980)): active; positive
- mutagenic call [3]: no conclusion
- mutagenic call [4]: no conclusion
- mutagenic call (Species/Cell Type: Mouse, Sex: Male, Assay Type: Sperm morphology, Assay Code: SPI+, Evaluation Type: Evaluation A (Pre-1980)): active; positive
- mutagenic call (Species/Cell Type: Neurospora crassa, Assay Type: Aneuploidy, chromosome aberrations, Assay Code: NEN-, Evaluation Type: Evaluation A (Pre-1980)): inactive; negative
- call [1]: no conclusion
- mutagenic call (Species/Cell Type: Nonhuman, Assay Type: Sister-chromatid exchange (SCE) in vitro, Assay Code: SC2T, Evaluation Type: Evaluation B (Post-1980)): no conclusion
- mutagenic call (Species/Cell Type: Vicia faba, Assay Type: Chromosome aberrations, Assay Code: VIC+, Evaluation Type: Evaluation A (Pre-1980)): active; positive

Compound: CCNP(=S)(OC)O/C(C)=C/C(=O)OC(C)C (stereo not given) (tested in a mixture with another compound)
- mutagenic call (Species/Cell Type: Mammalian polychromatic erythrocytes, Assay Type: Micronucleus test, chromosome aberrations, Assay Code: MNTT, Evaluation Type: Evaluation B (Post-1980)): no conclusion
